The target of test [1] is T1, α1β2γ2 subtype of the GABA receptor (Rattus norvegicus, UniProt P18508+P62813+P63138).
T1 construct: expressed in transfected cells; host or cells: Xenopus laevis oocytes (cRNA injection)
The experiment in a line: Electrophysiology: modulation of GABA currents in Xenopus oocytes expressing recombinant GABA-A receptors. The class given is cell-based. The following applies: for % stimulation of the GABA currents (100 μM): 100 μM compound with GABA; for % stimulation of the GABA currents (100 μM) / % stimulation of the GABA currents: α1β2γ2 in oocytes.

The target of test [2] is T2, benzodiazepine-binding site of the GABA-A receptor (Rattus norvegicus, UniProt P18508+P62813).
T2 construct: IC50 Flu / BZ receptor; other: cerebellum (ce); other: cerebellum (ce; BZ1 subtype); other: 10 μM; cerebellum; other: 100 μM; other: 0.5 μM
The test can be described thus: Displacement of tritiated flunitrazepam from brain membranes. The note with it: for inhibition at 100 µM: read-out: Inhibition of the tritiated ligands % Flu (100 μM).

For test [3], the system named is GABA-binding site of the GABA-A receptor. The test can be described thus: Displacement of tritiated muscimol from brain membranes. The note with it: for Muscimol: stimulation: stimulation instead of displacement.
For test [4], the system named is picrotoxin-binding site of the GABA-A receptor. The test can be described thus: Displacement of 35S-TBPS from brain membranes. Also on record: species or system rats. On the technique in general: Loss of bound radioactivity is the signal in a displacement assay; it reports binding, not function.

What is called inhibition is the change of the read-out against control, counted positive when it falls.

T1 sequence (P62813 28-455): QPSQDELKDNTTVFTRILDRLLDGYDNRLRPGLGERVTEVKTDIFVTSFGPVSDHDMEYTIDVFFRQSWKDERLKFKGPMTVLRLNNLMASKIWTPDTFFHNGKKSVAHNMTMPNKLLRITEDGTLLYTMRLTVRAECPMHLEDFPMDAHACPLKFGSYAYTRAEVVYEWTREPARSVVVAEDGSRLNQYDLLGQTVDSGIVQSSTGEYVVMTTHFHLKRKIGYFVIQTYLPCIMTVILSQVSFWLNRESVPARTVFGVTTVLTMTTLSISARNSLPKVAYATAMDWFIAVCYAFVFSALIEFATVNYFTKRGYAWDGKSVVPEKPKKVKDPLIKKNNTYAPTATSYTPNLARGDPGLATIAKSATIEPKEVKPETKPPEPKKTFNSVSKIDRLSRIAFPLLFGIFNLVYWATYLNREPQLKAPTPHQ
T1 sequence (P63138 25-474 limits assumed): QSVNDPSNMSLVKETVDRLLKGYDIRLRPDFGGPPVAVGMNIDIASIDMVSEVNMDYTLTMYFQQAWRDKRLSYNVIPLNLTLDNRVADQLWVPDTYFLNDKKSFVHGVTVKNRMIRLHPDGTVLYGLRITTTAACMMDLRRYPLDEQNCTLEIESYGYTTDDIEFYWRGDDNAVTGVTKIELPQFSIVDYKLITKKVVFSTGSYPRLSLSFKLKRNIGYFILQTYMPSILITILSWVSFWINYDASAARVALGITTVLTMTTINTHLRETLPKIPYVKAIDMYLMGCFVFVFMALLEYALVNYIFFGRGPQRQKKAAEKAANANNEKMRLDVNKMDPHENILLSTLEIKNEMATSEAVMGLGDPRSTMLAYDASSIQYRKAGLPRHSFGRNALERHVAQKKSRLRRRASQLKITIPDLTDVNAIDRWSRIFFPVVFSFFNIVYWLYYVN
T1 sequence (P18508 39-466): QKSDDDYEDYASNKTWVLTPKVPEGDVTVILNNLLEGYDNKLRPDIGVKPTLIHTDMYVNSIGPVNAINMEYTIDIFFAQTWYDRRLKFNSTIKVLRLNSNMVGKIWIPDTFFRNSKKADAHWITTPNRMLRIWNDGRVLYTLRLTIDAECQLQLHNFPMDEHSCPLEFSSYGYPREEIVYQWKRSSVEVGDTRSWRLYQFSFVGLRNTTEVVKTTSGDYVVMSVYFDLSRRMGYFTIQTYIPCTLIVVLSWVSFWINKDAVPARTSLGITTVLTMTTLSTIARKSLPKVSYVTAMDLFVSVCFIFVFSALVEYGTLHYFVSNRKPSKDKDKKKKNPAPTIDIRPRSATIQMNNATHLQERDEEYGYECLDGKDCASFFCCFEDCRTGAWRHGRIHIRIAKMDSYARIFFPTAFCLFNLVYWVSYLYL
T2 sequence (P62813 28-455): as the sequence (P62813 28-455) above
T2 sequence (P18508 39-466): as the sequence (P18508 39-466) above
T2 sequence (P63138 26-474 partner): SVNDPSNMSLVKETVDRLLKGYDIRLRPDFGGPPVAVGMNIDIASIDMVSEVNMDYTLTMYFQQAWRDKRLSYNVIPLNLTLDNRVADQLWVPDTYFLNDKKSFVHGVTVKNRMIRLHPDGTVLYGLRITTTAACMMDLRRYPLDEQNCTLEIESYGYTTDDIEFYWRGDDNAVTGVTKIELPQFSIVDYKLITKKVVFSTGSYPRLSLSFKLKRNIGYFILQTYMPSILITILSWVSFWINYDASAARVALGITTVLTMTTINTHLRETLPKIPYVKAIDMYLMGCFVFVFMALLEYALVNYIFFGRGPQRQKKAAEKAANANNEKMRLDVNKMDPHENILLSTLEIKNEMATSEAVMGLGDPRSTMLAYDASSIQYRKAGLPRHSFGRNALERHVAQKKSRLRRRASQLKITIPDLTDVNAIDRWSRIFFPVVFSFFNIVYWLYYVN

For `O=C1C=CC(C2c3ccccc3CCN2C(=O)Cc2ccccc2)O1` (racemic) [Compound 56], the “block of the stimulation caused by 20 μM of 164B” value in test [1] (100 μM) is recorded as “blocks the stimulation caused by 20 μM of 164B”. In test [1], the “% stimulation of the GABA currents (100 μM)” value (from here on “% stimulation … (100 μM)”) is “+10 ± 17%”. In addition, the “Inhibition of the tritiated ligands % Flu” value was 30% in test [2] (0.5 μM, cerebellum); 20% in test [2] (0.5 μM, cortex); 80% in test [2] (10 μM, cerebellum); 70% in test [2] (10 μM, cortex). Moreover, the figures for the “Inhibition of the tritiated ligands % Flu (100 μM)” value in test [2] (cerebellum) and in test [2] (cortex) were 85% and 90%, respectively. In test [3] (100 μM), this compound registered a Displacement of muscimol of 100 μM = 0%.

Regarding `COc1cc2c(cc1OC)C(C1C=CC(=O)O1)NCC2` (racemic) [Compound 42], the “% stimulation of the GABA currents” value in test [1] (0.1 μM compound) was 0%. The “% stimulation … (100 μM)” value in test [1] was −45 ± 6%. The inhibition at 10 µM in test [2] (10 μM, tissue not stated, read-out: Inhibition of the tritiated ligands % Flu) turned out to be 0%. Besides, in test [2] (tissue not stated), the inhibition at 100 µM was determined as 30%. For the same compound, the Displacement of muscimol in test [3] (10 μM) is 0%; in test [3] (100 μM) it was 20%.

As to `O=C1C=CC(C2c3cc4c(cc3CCN2C(=O)OCc2ccccc2)OCO4)O1` (racemic) [Compound 44], the results for the “% stimulation of the GABA currents” value in test [1] (0.1 μM compound) and in test [1] (50 μM compound) were 0% and “+215 ± 16%”, respectively. Moreover, the “Inhibition of the tritiated ligands % Flu” value was below 5% in test [2] (0.5 μM, tissue not stated) and 20% in test [2] (10 μM, tissue not stated). Besides, in test [2] (tissue not stated), the “Inhibition of the tritiated ligands % Flu (100 μM)” value is listed as 45%. For the same compound, the “Inhibition of the tritiated ligands % TBPS” value came out at 0% in test [4] (0.5 μM) and 25% in test [4] (10 μM). Besides, the Displacement of muscimol in test [3] (0.5 μM) was found to be 10%; in test [3] (10 μM) it was 0%. Also, the “Muscimol: stimulation” value in test [3] (100 μM) was 10%.

On to `COc1cc2c(cc1OC)C(C1C=C(C)C(=O)O1)N(C(=O)OCc1ccccc1)CC2` (racemic) [Compound 46], for which, in test [1] (0.1 μM compound), the “% stimulation of the GABA currents” value is listed as 0%. For the same compound, the “% stimulation … (100 μM)” value in test [1] worked out at 24 ± 5%. Further, in test [2] (tissue not stated), the “Inhibition of the tritiated ligands % Flu (100 μM)” value stood at 0%. Also, the Displacement of muscimol in test [3] (100 μM) is listed as 100 μM = 0%.

For `O=C1C=CC(C2c3ccccc3CCN2C(=O)OCc2ccccc2)O1` (racemic) [Compound 51], the “% stimulation of the GABA currents” value in test [1] (0.1 μM compound) came to 0%. The “% stimulation … (100 μM)” value in test [1] is on record as “+225 ± 68%”. The “Inhibition of the tritiated ligands % Flu” value came out at 0% in test [2] (0.5 μM, tissue not stated) and 50% in test [2] (10 μM, tissue not stated). Moreover, in test [2] (tissue not stated), the “Inhibition of the tritiated ligands % Flu (100 μM)” value is listed as 85%. The “Inhibition of the tritiated ligands % TBPS” value in test [4] (0.5 μM) amounted to 0%; in test [4] (10 μM), 20%. This compound had a Displacement of muscimol in test [3] (100 μM) of 100 μM = 0%.

With `COc1cc2c(cc1OC)[C@H]([C@@H]1C=CC(=O)O1)N(C(=O)OCc1ccccc1)CC2` (racemic) [Compound 32b, (±)-(1R,2′S)-1-(2,5-Dihydro-5-oxo-2-furyl)-2-N-benzyloxycarbonyl-6,7-dimethoxy-1,2,3,4-tetrahydroisoquinoline], in test [3] (concentration not given), the Displacement of muscimol result is listed as “Displacement of muscimol = 0%”.

Regarding `Cc1ccc(S(=O)(=O)N2CCc3ccccc3C2C2CCC(=O)N2)cc1` (racemic) [Compound 73], in test [1], the “% stimulation … (100 μM)” value is 26 ± 8%.

For the compound `COc1cc2c(cc1OC)[C@H]([C@@H]1CCC(=O)O1)N(C(=O)OCc1ccccc1)CC2` (racemic) [Compound 49], in test [1] (0.1 μM compound), the “% stimulation of the GABA currents” value turned out to be 0%. Moreover, the “% stimulation … (100 μM)” value in test [1] is listed as “+67 ± 9%”. In addition, the “Inhibition of the tritiated ligands % Flu (100 μM)” value in test [2] (tissue not stated) is listed as 30%. Also, the “Inhibition of the tritiated ligands % TBPS” value in test [4] (10 μM) was 0%. This compound came in with a Displacement of muscimol in test [3] (100 μM) of 100 μM = 0%.

In the case of `O=C1C=CC(C2c3ccccc3CCN2C(=O)OCc2ccccc2)O1` (racemic) [Compound 50], the “% stimulation of the GABA currents” value in test [1] (0.1 μM compound) is “+26 ± 6%”. For the same compound, the “% stimulation … (100 μM)” value in test [1] was “+281 ± 35%”. Moreover, in test [1] (printed after the 0.1 μM value), the “blockade of the stimulation by flumazenil (in words)” value is recorded as “completely blocked by flumazenil”. Also, the “Inhibition of the tritiated ligands % Flu” value came to 55% in test [2] (0.5 μM, tissue not stated) and 90% in test [2] (10 μM, tissue not stated). Moreover, the “Inhibition of the tritiated ligands % Flu (100 μM)” value in test [2] (tissue not stated) was 100%. Besides, the “Inhibition of the tritiated ligands % TBPS” value in test [4] (0.5 μM) amounted to 5%; in test [4] (10 μM), 30%. The Displacement of muscimol in test [3] (100 μM) was found to be 100 μM = 0%.

For the compound `O=C1C=CC(C2c3ccccc3CCN2C(=O)c2ccccc2)O1` (racemic) [Compound 60], in test [1] (0.1 μM compound), the “% stimulation of the GABA currents” value stood at 0%. Further, in test [1], the “% stimulation … (100 μM)” value was “+14 ± 13%”. Also, the “Inhibition of the tritiated ligands % Flu” value worked out at 35% in test [2] (0.5 μM, cerebellum); 25% in test [2] (0.5 μM, cortex); 90% in test [2] (10 μM, cerebellum); 80% in test [2] (10 μM, cortex). Besides, in test [2] (tissue not stated), the “Inhibition of the tritiated ligands % Flu (100 μM)” value is recorded as 90%. The same compound displayed a Displacement of muscimol in test [3] (100 μM) of 100 μM = 0%.

Turning to `CC1=C[C@@H]([C@H]2c3cc4c(cc3CCN2C)OCO4)OC1=O` (racemic) [Compound 43], the “% stimulation … (100 μM)” value in test [1] was −7 ± 2%. The inhibition at 100 µM in test [2] (tissue not stated) was around 20%. The “Inhibition of the tritiated ligands % TBPS” value in test [4] (10 μM) came to 10%. Moreover, the figures for the Displacement of muscimol in test [3] (0.5 μM), in test [3] (10 μM) and in test [3] (100 μM) were 30%, 45% and 50%, respectively.

Take `COc1cc2c(cc1OC)C(C1C=C(C)C(=O)O1)N(C(=O)OCc1ccccc1)CC2` (racemic) [Compound 47]: in test [1] (0.1 μM compound), the “% stimulation of the GABA currents” value is reported as 0%. Moreover, the “% stimulation … (100 μM)” value in test [1] is 60 ± 26%. Also, the “Inhibition of the tritiated ligands % Flu (100 μM)” value in test [2] (tissue not stated) is given as 10%. In addition, in test [3] (100 μM), the Displacement of muscimol was 100 μM = 0%.

With `O=C1C=CC(C2c3ccccc3CCN2C(=O)Oc2ccccc2)O1` (racemic) [Compound 57], the “% stimulation of the GABA currents” value in test [1] (0.1 μM compound) came to 0%. In addition, in test [1], the “% stimulation … (100 μM)” value was “+175 ± 13%”. Besides, the “Inhibition of the tritiated ligands % Flu” value in test [2] (0.5 μM, cerebellum) was 35%; in test [2] (0.5 μM, cortex) it was 25%; in test [2] (10 μM, cerebellum) it was 90%; in test [2] (10 μM, cortex) it was 75%. In addition, the “Inhibition of the tritiated ligands % Flu (100 μM)” value in test [2] (cerebellum) was determined as 90%; in test [2] (cortex), 85%. This compound also registered a Displacement of muscimol in test [3] (10 μM) of 0%. Besides, the “Muscimol: stimulation” value in test [3] (100 μM) was 10-20%.

Consider `Cc1ccc(S(=O)(=O)N2CCc3ccccc3C2C2CCC(=O)O2)cc1` (single isomer, unassigned) [Compound 69], for which, in test [1], the “portion of the stimulatory activity due to a binding site distinct from those for the benzodiazepines” value is reported as below 70% and the “% stimulation … (100 μM)” value was “+859 ± 75%”. Also, the “% stimulation … (100 μM)” value in test [1] (listed as (−) 69) is recorded as “+859%”. Besides, in test [1] (stimulation by 20 μM compound, 1 μM flumazenil), the “% of the stimulation inhibited by flumazenil” value came out at 28%.

Consider `COc1cc2c(cc1OC)C(C1CCC(=O)O1)N(C(=O)OCc1ccccc1)CC2` (racemic) [Compound 48, (±)-(1R,2′R)-2-N-Benzyloxycarbonyl-6,7-dimethoxy-1-(2,3,4,5-tetrahydro-5-oxo-2-furyl)-1,2,3,4-tetrahydroisoquinoline], for which the “% stimulation of the GABA currents” value in test [1] (0.1 μM compound) was found to be 0%. The “% stimulation … (100 μM)” value in test [1] was “+159 ± 31%”; in test [1] (listed as (+/−) 48) it was “+159%”. Also, the inhibition at 100 µM in test [2] (tissue not stated) was found to be 35%.

Turning to `Cc1ccc(S(=O)(=O)N2C=Cc3ccccc3C2[C@H]2CCC(=O)O2)cc1` (mixture of isomers) [Compound 76, (±)-(1R,2′R)-2-N-Tosyl-1-(2,3,4,5-tetrahydro-5-oxo-2-furyl)-1,2-dihydroisoquinoline], the “% stimulation of the GABA currents” value in test [1] (10 μM compound) was found to be 97 ± 2%. The “% stimulation … (100 μM)” value in test [1] was “+481 ± 116%”. Also, the “Inhibition of the tritiated ligands % Flu (100 μM)” value in test [2] (tissue not stated) came out at 0%. Also, the “Muscimol: stimulation” value in test [3] (100 μM) stood at 20% stimulation at 100 μM.

For `COc1cc2c(cc1OC)[C@H]([C@@H]1C=C(C)C(=O)O1)N(C)CC2` (racemic) [Compound 30b], the “% stimulation … (100 μM)” value in test [1] was −10%. In addition, the “Inhibition of the tritiated ligands % Flu (100 μM)” value in test [2] (tissue not stated) is recorded as “negligible”.

For `Cc1ccc(S(=O)(=O)N2CCc3ccccc3C2C2CCC(=O)O2)cc1` (single isomer, unassigned) [Compound 68], the “% stimulation … (100 μM)” value in test [1] is “+184 ± 43%”; in test [1] (listed as (−) 68) it was “+184%”.

In the case of `COc1cc2c(cc1OC)[C@H]([C@@H]1CCC(=O)O1)NCC2` (racemic) [Compound 27b, (±)-Threo-6,7-dimethoxy-1-(2,3,4,5-tetrahydro-5-oxo-2-furyl)-1,2,3,4-tetrahydroisoquinoline], the “% stimulation of the GABA currents” value in test [1] (200 μM compound) worked out at 200 μM = −6%. Moreover, the “Inhibition of the tritiated ligands % Flu (100 μM)” value in test [2] (tissue not stated) is “negligible”.

The values are drawn from patent US6649626B1, “N-substituted 1-(lactone) isoquinolones for treating nervous disorders” (Centre National de la Recherche Scientifique (CNRS), priority 1999, dated 2003).
